Structures are written as SMILES. Values after ≈ are worked out from the molar mass of the structure shown.

The conditions of the data set: buffer; pH 7.4; 200.0 µM.
The molecule `CC(C)(C)c1ccc(C(=O)NC(=S)NCc2ccco2)cc1` had a solubility (kinetic) of 0.6 µg/mL (≈ 1.9 µM).
The figure for `CCOc1ccccc1CNCC1CCCO1.Cl` (stereo unspecified) is 31.5 µg/mL; for `COc1ccc(CONc2ncnc3nonc23)cc1[N+](=O)[O-]` it is above 47.7 µg/mL.
Under `CCN(Cc1cccc(F)c1)C(=O)c1ccc2ccccc2n1` stands above 46.3 µg/mL; under `Cc1ccc([N+](=O)[O-])cc1N(CC(=O)N1CCCCC1)S(C)(=O)=O`, above 53.3 µg/mL.
Under `CCN1CCN(CC(=O)Nc2cc(S(=O)(=O)N(CC)c3ccccc3)ccc2Cl)CC1.Cl` stands above 75.2 µg/mL.
In turn, `CN1CCN(CCCNC(=O)Nc2ccc([N+](=O)[O-])cc2)CC1` displayed a kinetic solubility of 44.8 µg/mL (≈ 139 µM).
Under `Cc1cccc(C)c1NC(=S)N(CCc1ccncc1)C(C)C` stands 45.6 µg/mL (≈ 139 µM); under `COc1ccc(Nc2ncnc3sc(-c4ccccc4)cc23)c(OC)c1`, 0.6 µg/mL (≈ 1.65 µM); under `Cc1ccnc(NC(=O)CCS(=O)(=O)c2ccccc2)c1`, above 45.7 µg/mL.
`O=C(CN1CCOCC1)Nc1ccc(F)cc1` returned a kinetic solubility above 35.7 µg/mL.
The figure for `O=C(O)C1CCCCC1C(=O)NC(c1ccccc1)c1ccccc1` (stereo unspecified) is 48.8 µg/mL (≈ 145 µM); for `Cc1ccc(C(=O)Nc2ccc(S(=O)(=O)N3CCCC3)cc2)cc1` it is 1.6 µg/mL (≈ 4.65 µM).
On to `N#Cc1ccccc1OCC(=O)OCC(=O)NC1CCCCC1`, for which the kinetic solubility was above 47.5 µg/mL.
`CCOc1ccc(CNc2ccc3c(c2)ncn3C(C)(C)C)cc1`: the solubility (kinetic) was found to be 46.3 µg/mL (≈ 143 µM).
The figure for `Cc1cc(Br)ccc1NC(=O)c1ccco1` is above 42 µg/mL; for `CC1CC(C)CN(C(=O)c2ccc(C#N)cc2)C1` (stereo unspecified) it is above 36.3 µg/mL.
The figure for `CC(C)Cc1nc2sc3c(SCC(N)=O)ncnc3c2c2c1CCC2` is 0.3 µg/mL (≈ 0.805 µM); for `O=C(CN1C(=O)NC2(CCOc3ccccc32)C1=O)NCc1ccccc1` (stereo unspecified) it is above 54.8 µg/mL; for `COc1cc(C=O)ccc1OCc1ccncc1` it is 35.2 µg/mL (≈ 145 µM).
The figure for `Cc1c(Cl)cccc1NC(=S)NCCc1ccc(F)cc1` is 1.2 µg/mL (≈ 3.72 µM); for `CNC(=S)NNC(=O)c1cccc(N(C)C)c1` it is above 37.9 µg/mL; for `Nc1nc(Nc2ccccc2F)nc(NC2CCCCC2)c1[N+](=O)[O-]` it is below 0.1 µg/mL.
For `Cc1csc(=O)n1CCC(=O)N(C)Cc1c(F)cccc1Cl`, the kinetic solubility is above 51.4 µg/mL.
Consider `CC1(C)S[C@@H]2[C@H](NC(=O)C(C(=O)[O-])c3ccccc3)C(=O)N2[C@H]1C(=O)[O-].[Na+]` (stereo partly specified), for which the kinetic solubility is above 63.4 µg/mL.
`O=C(NCc1cccc(Cl)c1)c1ccc2ccccc2n1` had a kinetic solubility of 3.6 µg/mL (≈ 12.1 µM).
The figure for `CCc1ccccc1NC(=S)N(CCN(C)C)C(C)c1ccco1` (stereo unspecified) is 50.5 µg/mL (≈ 146 µM); for `Cn1cccc1C(=O)N1CCc2ccccc2C1` it is above 36 µg/mL.
The figure for `COc1ccc(NC(=O)CCc2nc3ccccc3c(=O)[nH]2)cc1S(=O)(=O)N1CCCCC1` is 9.6 µg/mL (≈ 20.4 µM); for `N#Cc1ccccc1COC(=O)c1ccc(Br)o1` it is 28.4 µg/mL (≈ 92.8 µM).
Under `COc1ccc(CCNC(=O)CCc2ccsc2)cc1OC` stands above 47.9 µg/mL; under `COc1ccc2c3c([nH]c2c1)C(C)=NCC3`, 30.6 µg/mL (≈ 143 µM).
For `CCc1nc2ccc(C(=O)N3CCN(CC)CC3)cc2nc1CC`, the solubility (kinetic) amounted to 48.6 µg/mL (≈ 149 µM).
The figure for `O=C(CC1S/C(=N/N=C2CCCCCC2)NC1=O)Nc1ccccc1F` (stereo unspecified) is above 56.5 µg/mL; for `O=C(COC(=O)CCSc1ccccc1)NCc1ccccc1` it is above 49.4 µg/mL; for `COc1cccc(OC)c1C(=O)Nc1ccccc1Sc1ccccc1` it is 3.6 µg/mL (≈ 9.85 µM).
`CCN(c1ccccc1)S(=O)(=O)c1ccc(Cl)c(NC(=O)CNCc2ccccc2OC)c1`: the kinetic solubility was found to be 3.7 µg/mL (≈ 7.58 µM).
Under `Cc1ccc(C)n1CCN1CCN(S(=O)(=O)c2ccc(F)cc2F)CC1` stands 26.1 µg/mL (≈ 68.1 µM); under `CCOC(=O)Cc1csc(CC(N)=O)[nH+]1.[Cl-]`, above 39.7 µg/mL; under `COc1ccc(-c2nc3ncccc3o2)cc1NC(=O)c1ccco1`, 2.5 µg/mL (≈ 7.46 µM).
The figure for `COc1ccccc1N1CCN(CC(O)c2ccccc2)CC1` (stereo unspecified) is 37.6 µg/mL (≈ 120 µM); for `O=C(CSCCOc1ccccc1)NCc1ccncc1` it is above 45.4 µg/mL; for `Cc1cccc(C)c1NC(=O)CC(C)c1ccccc1` (stereo unspecified) it is 12.8 µg/mL (≈ 47.9 µM).
The figure for `COc1cc(S(=O)(=O)NC2CCCCC2C)ccc1F` (stereo unspecified) is above 45.2 µg/mL; for `CCOc1ccc(NC(=O)CSc2ccccc2N)cc1` it is above 45.4 µg/mL.
Take `O=C(OCC(=O)N(CCc1ccccc1)Cc1ccccc1)c1cccc(O)c1`: the solubility (kinetic) was determined as 2.6 µg/mL (≈ 6.68 µM).
The figure for `CCCCc1nc(Cl)c(C#N)c2c1CCC2` is 3.4 µg/mL (≈ 14.5 µM).
For the molecule `CC1CCc2cc(F)ccc2N1S(=O)(=O)c1ccc(F)cc1` (stereo unspecified), the solubility (kinetic) amounted to 2.4 µg/mL (≈ 7.42 µM).
`O=C(c1cc(-c2ccc3c(c2)OCO3)on1)N1CCCCC1` returned a solubility (kinetic) of 5.7 µg/mL (≈ 19 µM).
The figure for `COc1cccc(NC(=O)N(CCN(C)C)C(C)c2cccnc2)c1` (stereo unspecified) is above 51.4 µg/mL.
Under `CC(C(=O)NC1CCCCC1)N1C(=O)C2C3C=CC(C3)C2C1=O` (stereo unspecified) stands above 47.5 µg/mL.

Source of the values: PubChem BioAssay AID1996.
